Results: ChEMBL document CHEMBL1146000, “Synthesis, in vitro evaluation, and intraocular pressure effects of water-soluble prodrugs of endocannabinoid noladin ether” (J Med Chem, 2003)

Legend:
alkaline phosphatase = test: Half-life in alkaline phosphatase solution at 37 C (n = 2); type: ADME
[1] = Half-life in 10% liver homogenate at 37 C (n = 3); type: ADME, tissue-based
[2] = Half-life in 4% cornea homogenate at 37 C (n = 3); type: ADME, tissue-based
[3] = Aqueous solubility of the phosphate in TRIS buffers at pH 7.4 at 37 C was determined; type: physicochemical; conditions: TRIS buffer
[4] = Distribution coefficients at 25 C in a 1-octanol-TRIS buffer; type: physicochemical
[5] = Chemical stability in TRIS buffers at pH 7.4 at 37 C was determined; type: physicochemical; conditions: TRIS buffer
[6] = Chemical stability in phosphate buffers at pH 7.4 at 37 C was determined; type: physicochemical; conditions: phosphate buffer

half-life (alkaline phosphatase) [min]	half-life [1] [min]	half-life [2] [min]	solubility [3] [µg/mL]	logD [4]	half-life [5] [h]	half-life [6] [days]	Structure (SMILES)
1.6	6.4	17.2	> 5000	0.65			CCCCC/C=C\C/C=C\C/C=C\C/C=C\CCCCOC(COP(=O)(O)O)COP(=O)(O)O
4.6	7.1	18.1	> 5000	1.98	216	17.9	CCCCC/C=C\C/C=C\C/C=C\C/C=C\CCCCOC(CO)COP(=O)(O)O (stereo not drawn)

Structure (SMILES)	half-life (alkaline phosphatase) [min]	half-life [1] [min]	half-life [2] [min]	solubility [3] [µg/mL]	logD [4]	half-life [5] [h]	half-life [6] [days]
CCCCC/C=C\C/C=C\C/C=C\C/C=C\CCCCOC(CO)CO				< 0.1			
